Results as given in article PMC10740580, “Benzothiazole-Phthalimide Hybrids as Anti-Breast Cancer and Antimicrobial Agents” (Antibiotics, 2023).
≈ marks a conversion by molar mass, not a printed value.

Experiments:
[1] = tested on: Candida albicans 10231; experiment: Antifungal microdilution, C. albicans ATCC 10231; format: cell-based; details: microdilution CLSI M27-A3, 48 h, 37 °C
Protocol: (§1) In accordance with CLSI guidelines, compounds 3a–h were tested against a variety of fungal strains (Candida albicans 10231, Candida albicans 90028, Candida glabrata 15126, and Candida parapsilosis 22019) belonging to the ATCC collection. Amphotericin B was utilized as a reference drug. A similar trend of results, or even better than that obtained against bacteria, was assessed against fungal strains. […] Also, in this case, compound 3h emerged as the best of the series, with MICs of 16 μg/mL against Candida glabrata and Candida parapsilosis strains and 32 μg/mL against Candida albicans strains.
(§2) A microdilution technique described by the Clinical and Laboratory Standards Institute (CLSI, M27-A3) was used to assess the antifungal activity. The following fungal strains, belonging to the ATCC collection and available as freeze-dried discs, were used: C. albicans ATCC 10231, C. albicans ATCC 90028, C. glabrata ATCC 15126, and C. parapsilosis ATCC 22019. Stock solutions were prepared and preserved with purity as previously described for the antibacterial studies. Each yeast strain’s pre-cultures were made in Sabouraud broth (SAB) and allowed to grow until they stopped at 37 °C. By using a spectrophotometric technique (530 nm, range 0.12–0.15), the turbidity of the yeast stock suspension was calibrated to 0.5 McFarland Standard. Next, the standardized suspension was diluted first at 1:50 with SAB and then at 1:20 in the same medium to have […]. A total of 100 µL of inoculum was seeded into each well. As a control for growth, several wells containing only inoculated broth were prepared. The plates were incubated for 48 h at 37 °C, and the MIC values were calculated as the final well with no fungal growth. […] MIC values were observed based on the absence of fungal growth in the final well. The MICs were calculated by conducting the antifungal test three times in duplicate. As a control, amphotericin B was used.

[2] = tested on: Candida albicans 90028; experiment: Antifungal microdilution, C. albicans ATCC 90028; format: cell-based; details: microdilution CLSI M27-A3, 48 h, 37 °C
Protocol: as §1, §2

[3] = tested on: Candida glabrata 15126; experiment: Antifungal microdilution, C. glabrata ATCC 15126; format: cell-based; details: Nakaseomyces glabratus, microdilution CLSI M27-A3, 48 h, 37 °C, read-out: MIC C.g. 15126
Protocol: as §1, §2

[4] = tested on: Candida parapsilosis 22019; experiment: Antifungal microdilution, C. parapsilosis ATCC 22019; format: cell-based; details: microdilution CLSI M27-A3, 48 h, 37 °C, read-out: MIC C.p. 22019
Protocol: as §1, §2

[5] = tested on: Staphylococcus aureus 25923; experiment: Broth microdilution, S. aureus ATCC 25923; format: cell-based; details: Staphylococcus aureus, 25923, 24 h, 37 °C
From the text: (§3) Compounds 3a–h were examined in accordance with the Clinical Laboratory Standards Institute (CLSI) recommendations, by means of the broth microdilution method, against gram-positive bacteria (Staphylococcus aureus 25923, Staphylococcus aureus 29213, Staphylococcus aureus 43300, Enterococcus faecalis 29212) and gram-negative bacteria (Escherichia coli 25922, Klebsiella pneumoniae 13883, Pseudomonas aeruginosa 27853) belonging to the ATCC collection, using levofloxacin as a reference drug. Table 3 lists the results, expressed as MIC (µg/mL). […] The lack of activity observed for compound 3d could be conceivably due to its poor solubility in the culture medium containing the inoculum.
(§4) Following the recommendations of the CLSI (Clinical and Laboratory Standards Institute, 2012), the broth microdilution method was used to determine the in vitro minimum inhibitory concentrations (MICs, µg/mL).. The concentration of the investigated compounds was set to its highest value to create stock solutions. Then, the stock solutions were diluted 1:10 with Cation-Adjusted Mueller Hinton Broth (Oxoid, Milan, Italy). After that, a series of concentrations from 512 µg/mL to […] were obtained in the wells by performing two-fold serial dilutions in the appropriate test medium. The diluent used to create the stock solution was 100% DMSO. We used the following bacterial strains from the ATCC collection that were available as freeze-dried discs: gram-positive strains such as S. aureus ATCC 25923, 29213, and 43300, and E. faecalis ATCC 29212, and gram-negative ones such as E. coli ATCC 25922, K. pneuomoniae ATCC 13883, and P. aeruginosa ATCC 27853. To preserve the purity of cultures and to allow their reproducibility, cryovials of all microbial strains were set up in the medium and stored at −80 °C. Mueller Hinton Broth (MHB) was used to prepare pre-cultures of each bacterial strain, which were then incubated for 3–5 h at 37 °C. In accordance with CLSI procedure M7-A9, the turbidity of the bacterial cell suspension was calibrated to 0.5 McFarland Standard using a spectrophotometric approach (OD625 nm 0.08–0.10). The standardized suspension was then further diluted (1:100) with MHB to reach 1–2 × 10^6 CFU/mL. A 200 µL aliquot of the final inoculum was inserted into each well. As a control for growth, several wells containing only inoculated broth were prepared. The plates were incubated at 37 °C for 24 h, and the MIC values were calculated as the lowest concentration of compounds at which there was no optically detectable bacteria growth. Each experiment was carried out in duplicate and repeated twice to determine the MICs. Levofloxacin served as the study’s standard reference antibiotic. Additionally, the antibacterial activity of DMSO alone (used as a diluent for the investigated compounds) was examined; therefore, volumes of this solvent with a concentration of less than 5% were utilized throughout the experimentation.

[6] = tested on: Staphylococcus aureus 29213; experiment: Broth microdilution, S. aureus ATCC 29213; format: cell-based; details: 24 h, 37 °C
From the text: as §3, §4

[7] = tested on: Staphylococcus aureus 43300; experiment: Broth microdilution, S. aureus ATCC 43300; format: cell-based; details: 24 h, 37 °C, methicillin-resistant
From the text: as §3, §4

[8] = tested on: Enterococcus faecalis 29212; experiment: Broth microdilution, E. faecalis ATCC 29212; format: cell-based; details: 24 h, 37 °C, read-out: MIC E.f. 29212
From the text: as §3, §4

[9] = tested on: Acinetobacter baumanii 19606; experiment: Broth microdilution, A. baumanii 19606; format: cell-based; details: Acinetobacter baumannii, 24 h, 37 °C, read-out: MIC A.b. 19606
[10] = tested on: Escherichia coli 25922; experiment: Broth microdilution, E. coli ATCC 25922; format: cell-based; details: 24 h, 37 °C
From the text: as §3, §4

[11] = tested on: Klebsiella pneumoniae 13883; experiment: Broth microdilution, K. pneumoniae ATCC 13883; format: cell-based; details: 24 h, 37 °C, read-out: MIC K.p. 13883
From the text: as §3, §4

[12] = tested on: Pseudomonas aeruginosa 27853; experiment: Broth microdilution, P. aeruginosa ATCC 27853; format: cell-based; details: 24 h, 37 °C
From the text: as §3, §4

[13] = tested on: MDA-MB-231 cells; experiment: MTT cell viability assay, MDA-MB-231; format: cell-based, human; details: Homo sapiens, MDA-MB-231, 72 h exposure, mean ± SD
Protocol: (§5) The anticancer activity of the studied compounds (3a–h) was explored with regards to two human breast cancer cell lines, namely the estrogen receptor positive (ER+) MCF-7 cells and the triple negative MDA-MB-231 cells (ER-, PR-, and HER-2/Neu-). Cells were continuously exposed to the test substances for 72 h, after which their viability was assessed by means of the MTT assay. Table 2 lists the determined IC50 values for the investigated substances and the reference drug, thalidomide. […] Additionally, the same test for all the compounds has been performed on nonmalignant breast epithelial cells (MCF-10A) to ascertain their potential cytotoxicity.
(§6) The four cell lines used in this work (MCF-7, MDA-MB-231, MCF-10A, and 3T3-L1) were obtained from the American Type Culture Collection (ATCC, Manassas, VA, USA). All cell lines were maintained at 37 °C in a humidified atmosphere of 95% air and 5% CO2 and periodically screened for contamination. MCF-7, human breast cancer cells estrogen receptor (ER)-positive, and human breast cancer triple negative MDA-MB231 were grown in DMEM-F12 medium containing 2 mmol/L L-glutamine, 1 mg/mL penicillin–streptomycin, and 5% newborn calf serum (NCS) or 5% fetal bovine serum (FBS), respectively. MCF-10A human mammary epithelial cells were cultured in DMEM/F12 medium, supplemented with 5% horse serum (HS) (Eurobio, Les Ullis, Cedex, France), 100 U/mL penicillin/streptomycin, […], 20 ng/mL hEGF (human epidermal growth factor), […], and […] (Sigma-Aldrich, Milano, Italy). BALB/3T3 murine fibroblast cells were cultured in DMEM high glucose supplemented with 10% bovine calf serum (BCS), 1% L-glutamine, and 100 U/mL penicillin/streptomycin.
(§7) Cell viability was evaluated by means of the 3-(4,5-dimethylthiazol-2-y1)-2,5-diphenyltetra zolium bromide (MTT, Sigma-Aldrich, Milan, Italy) assay. On 48-well plates, cells were seeded, and they were cultured in complete medium. Before being treated, cells were starved in serum-free medium for 24 h to allow cell cycle synchronization. Subsequently, cells were exposed to increasing doses of each compound for 72 h in phenol-red-free media supplemented with 1% serum before fresh MTT was added to each well (final concentration: 0.5 mg/mL). Cells were lysed with DMSO after 2 h of incubation at 37 °C, and optical density at 570 nm was then determined with a microplate reader. Using GraphPad Prism 9 software (GraphPad Inc., San Diego, CA, USA), the mean absorbance for each sample was expressed as a percentage over the control and plotted vs. drug concentrations to establish the IC50 values. The given standard deviations (SDs) are indicative of three separate tests carried out in triplicate.

[14] = tested on: MCF-7 cells; experiment: MTT cell viability assay, MCF-7; format: cell-based, human; details: Homo sapiens, MCF7, 72 h exposure, mean ± SD
Protocol: as §5, §6, §7

[15] = tested on: MCF-10A cells; experiment: MTT cell viability assay, nonmalignant MCF-10A; format: cell-based; details: Homo sapiens, 72 h exposure, nonmalignant breast epithelial cells, mean ± SD, read-out: IC50 MCF10-A
Protocol: as §5, §6, §7

[16] = tested on: MDA-MB-231 cells; experiment: TUNEL assay (DNA damage); format: cell-based, human; details: 50 μM, 24 h
Protocol: To further assess the effect of 3h treatment in MDA-MB-231, the terminal deoxynucleotidyl transferase dUTP nick-end labeling (TUNEL) assay was used. Thus, 3h or Thalidomide, as reference drug, were administered to the cells, for 24 h, at 25 and 50 μM concentrations, respectively, or with only the vehicle (DMSO), as negative control and then processed as outlined in the experimental section. […] Nuclei were counterstained with blue DAPI (Figure 2, panels A), and merge channels were also shown (Figure 2, panels C), where it is evident the perfect superposition of green and blue signals. […] Images taken from bright fields were also included (Figure 2, panels D).
DNA damage and cell death were analyzed by means of the TUNEL assay as indicated by the manufacturer’s protocols (CF™488A TUNEL Assay Apoptosis Detection Kit, Biotium, Hayward, CA, USA), with few changes, as in [42]. DAPI staining (0.2 μg/mL, Sigma Aldrich, Milan, Italy) was adopted for cell nuclei. Observations were made at 20× magnification using a fluorescence microscope (Leica DM 6000, Leica Microsystem Srl, Buccinasco, Italy). LAS-X software (Version: 3.5.7.23225; Leica Microsystem Srl, Buccinasco, Italy) was employed for the acquisition and processing of the images. Images are representative of two separate experiments from which different fields were acquired.
Figure 2 TUNEL assay. […]

C[C@@H]1[C@H](O)[C@@H](C)/C=C/C=C/C=C/C=C/C=C/C=C/C=C/[C@H](O[C@@H]2O[C@H](C)[C@@H](O)[C@H](N)[C@@H]2O)C[C@@H]2O[C@](O)(C[C@@H](O)C[C@@H](O)[C@H](O)CC[C@@H](O)C[C@@H](O)CC(=O)O[C@H]1C)C[C@H](O)[C@H]2C(=O)O [amph B, amphotericin B, reference compound]
MIC [1]: 2 µg/mL (≈ 2.16 µM)
MIC [2]: 1 µg/mL (≈ 1.08 µM)
MIC [3]: 2 µg/mL (≈ 2.16 µM)
MIC [4]: 2 µg/mL (≈ 2.16 µM)

C[C@H]1COc2c(N3CCN(C)CC3)c(F)cc3c(=O)c(C(=O)O)cn1c23 [levofloxacin, reference compound]
MIC [5]: 0.5 µg/mL (≈ 1.38 µM)
MIC [6]: 0.5 µg/mL (≈ 1.38 µM)
MIC [7]: 0.5 µg/mL (≈ 1.38 µM)
MIC [8]: 2 µg/mL (≈ 5.53 µM)
MIC [9]: 8 µg/mL (≈ 22.1 µM)
MIC [10]: 0.06 µg/mL (≈ 0.166 µM)
MIC [11]: 8 µg/mL (≈ 22.1 µM)
MIC [12]: 4 µg/mL (≈ 11.1 µM)

O=C1CCC(N2C(=O)c3ccccc3C2=O)C(=O)N1 (stereo not shown) [thalidomide, reference compound]
IC50 [13]: 413 ± 2 µM
IC50 [14]: 360 ± 2 µM
IC50 [15]: > 500 µM
DNA damage (TUNEL, green nuclear fluorescence) [16]: found to damage DNA
